One series has as its system Pooled human hepatocytes. Kind of series: Hepatocyte elimination (in vitro metabolic stability, percent parent remaining by LC/MS/MS). In kind it is in vitro ADME. Particulars: for Rate of hepatocyte elimination / stability, comparison in words: compared with other forms. From the text:
In vitro experiments with isotopically enriched cystamine and cysteamine in hepatocytes.
The assessment of in vitro metabolic stability provides a means to measure the susceptibility of a test compound to biotransformation by the liver. While liver microsomes primarily assess cytochrome P450 system-mediated metabolism (phase I metabolism), hepatocytes represent a complete, undisrupted metabolic system, including cofactors, and thus assess both phase I and phase II metabolism. In all cases, the metabolic stability of test compounds was determined by monitoring, via LC/MS/MS, the percent parent compound remaining versus time of incubation in human hepatocytes.
Pooled human hepatocytes (catalog number HMCS10, ThermoFischer Scientific) were thawed according to the manufacturers instructions. Thawed hepatocytes were washed by centrifugation and replated in Williams' Medium E supplemented with Heptocyte Plating Supplement Pack, Serum-containing.
Cells were diluted to 1,000,000 per ml in maintenance media (Williams' E Media supplemented with Hepatocyte Maintenance Supplement Pack, Serum-free). 500 μl of cell suspension was added to each well of a microtiter plate containing 500 μl of the deuterated test agent and placed on an orbital shaker at 120 rpm at 37 C. At the appropriate time point 50 μl aliquots were removed from the well and added to 50 μl of ice cold ethyl acetate and vortexed for 5 min and froze until chromatography analysis.

For series [1], the system named is cystinotic fibroblasts. In words: Cystine depletion during constant drug exposure in cystinotic fibroblasts. Conditions: 100 uM constant exposure, 0-5 h, vs cystamine. In kind it is cell-based, human. How it is done: (§1) In vitro experiments with isotopically enriched cystamine in cystinotic fibroblasts. Fibroblasts from a de-identified cystinotic patient were split 3× from 2 plates into 36 plates. Three different drugs were used for the experiments: cystamine (non-labeled), d2-cystamine, and d4-cystamine. There were two time series for each drug. The first was with constant drug incubation and included: 0, 10 min, 30 min, 1 h, 3 h, and 5 h. The other series included a washout after 3 h drug incubation, using fresh media following a PBS wash, and included the timepoints: 0, 30 min, 1 h, 3 h, 5 h, and 17 h. A direct quench and extraction technique were used for harvesting all cells to minimize further oxidation and metabolism. This included 2× washes with PBS that included 5 mM N-ethylmaleimide for trapping free thiol groups, and then scraping the plates with an acidified organic solvent extraction solution containing both d4-cystine and d4-cysteamine (plus d-8 cystamine) as internal standards. All samples were run on an API 4500 triple quadrupole LC-MS/MS, with selective reaction monitoring (SRM/MRM) for the following compounds of interest: cystine, NEM-cysteamine, NEM-cysteine, cystamine, and 2-(methylthio)ethylamine. All data fit well to single exponential curves (either decay or association), except where mentioned.
Following incubation, cells were washed 2× in PBS containing N-ethylmaleimide.
(§2) Fibroblasts from a de-identified cystinotic patient were split 3× from 2 plates into 18 plates. Two different drugs were used for the experiments: D4n-cystamine, and D8-cystamine. There were two time series for each drug. The first was with constant drug incubation and included: 0, 15 min, 30 min, 1 hr, and 3 hr. The other series included a washout after 3 hours of drug incubation, using fresh media following a PBS wash, and included the time-points: 0, 1 hr, 3 hr, and 16 hr. A direct quench and extraction technique was used for harvesting all cells to minimize further oxidation and metabolism. […] All samples were run on an API 4500 triple quadruple LC-MS/MS, with selective reaction monitoring (SRM/MRM) for the following compounds of interest: cystine, NEM-cysteamine, NEM-cysteine, and cystamine. All data fit well to single exponential curves (either decay or association), except where mentioned.

The subject of series [2] is cystinotic fibroblasts. In words: Cystine re-accumulation after washout in cystinotic fibroblasts. The class given is cell-based, human. Particulars: for Cystine reaccumulation after washout, D4n vs D8: 50 μM for 3 hours, then media 1 h, 3 h, 16 h. The protocol:
as §1
Cystine measurement after washout: Fibroblast cultures were exposed to 100 uM cystamine/d2-cystamine/d4-cystamine for 3 h. Following incubation, cells were washed with PBS, and then incubated with regular media (containing FBS) for the following timepoints: 0 min, 30 min, 1 h, 3 h, 5 h, and 17 h. Cells were harvested identically as described previously.
as §2
Fibroblast cultures were exposed to 50 μM cystamine (D8 or D4n) for 3 hours. Following incubation, cells were washed with PBS and then incubated with regular mediate containing FBS for 1 h, 3 h, and 16 h. Cells were harvested as above. […] Cystine reaccumulation between D4n-cystamine and D8-cystamine are very similar, indicating similar levels of drug remaining during the washout timepoints (FIG. 15).

For series [3], the system named is cystinotic fibroblasts. Kind of series: Intracellular NEM-cysteamine, NEM-cysteine, cystamine and mixed disulfide levels in cystinotic fibroblasts. The class given is cell-based, human. Conditions: washout period. The protocol: as §1
NEM-cysteamine and NEM-cysteine during constant incubation. Fibroblast cultures were exposed to drug (either cystamine, d2-cystamine, or d4-cystamine) and harvested as described on page 2 for the cystine depletion curve. NEM-cysteamine (or NEM-d1-cysteamine or NEM-d2-cysteamine) was measured for each respective plate and normalized against the signal for d4-cystine.
NEM-cysteamine during washout. Fibroblast cultures were exposed to drug (either cystamine, d2-cystamine, or d4-cystamine) for 3 h were then exposed to media for various timepoints and harvested as previously described.
NEM-cysteine during washout. Fibroblast cultures were exposed to drug (either cystamine, d2-cystamine, or d4-cystamine) for 3 h were then exposed to media for various timepoints and harvested as previously described.
Cystamine during constant drug incubation. Fibroblast cultures were exposed to drug (either cystamine, d2-cystamine, or d4-cystamine) for various timepoints following harvesting as described earlier. Cystamine could be measured in the non-labeled cystamine incubation as well as the d4-cystamine incubation. d2-cystamine could not be accurately measured due to a strong background interference signal corresponding to that mass. No cystamine could be measured in the washout experiments.

The test system of series [4] is C57BL/6 male mice on CDAHFD diet. Kind of series: In vivo NASH model, prevention phase (drug in drinking water, 8 weeks). Particulars: about 200 mg/kg/day in drinking water, n=8 per group. How it is done:
(§3) In vivo NASH Models. NASH models from normal C57BL/6 male mice on CDAHFD diet (choline deficient, L-amino acid defined, high fat diet with restricted amount of methionine) were used. Two deuterated cystamine molecules were tested:
(§4) Two phase study was performed: (1) A prevention and (2) a treatment phase. 48 Mice were separated into nine groups of mice as described below. Histology at end of each study was performed looking for specific features of NASH (steatohepatitis, ballooning, fibrosis). The primary endpoint was plasma ALT measurement. Gene expression studies for fibrosis, inflammation were also performed.
Drug (D2 or D4) was administered in drinking water at a concentration to deliver animals about 200 mg/kg/day of drug. Daily weight. Volume of fluid drunk/day was also measured.
Prevention Phase. Group 1: Control mice on CDAHFD for 8 weeks. Blood drawn at 0, 4, and 8 weeks. Group 2: Mice on CDAHFD plus D2 at 200 mg/kg/day for 8 weeks. Blood drawn at 0, 4, and 8 weeks. Group 3: Mice on CDAHFD plus D4 at 200 mg/kg/day for 8 weeks. Blood drawn at 0, 4, and 8 weeks. Group 4: Control mice (n=4) continue on CDAHFD for 2 weeks. Blood at baseline and at 2 weeks. Liver histology at 2 weeks. Group 5: Mice (n=4) on CDAHFD for 2 weeks plus D2 at 200 mg/kg/day administered via daily gavage. Blood at 0 and 2 weeks and histology at 2 weeks. […]

Series [5] has the same test system. Kind of series: In vivo NASH model, treatment phase (8 weeks CDAHFD, then 2 weeks daily gavage). Particulars: for Fatty deposits / fat globules in liver, H&E staining: 200 mg/kg/day. How it is done: Liver Inflammatory Cells. CD11b stains macrophages and microglia. CD11b staining of liver tissue was taken after 10 weeks of CDAHFD in three groups of mice. […] At 8 weeks, treatment group 2 (“C2”) mice started gavage feeding with D2-Cystamine at 200 mg/kg/day once daily gavage, and treatment group 3 (“C3”) mice received D4-Cystamine at 200 mg/kg/day by once daily gavage.
as §3, §4
Prevention Phase. Group 1: Control mice on CDAHFD for 8 weeks. Blood drawn at 0, 4, and 8 weeks. Group 2: Mice on CDAHFD plus D2 at 200 mg/kg/day for 8 weeks. Blood drawn at 0, 4, and 8 weeks. Group 3: Mice on CDAHFD plus D4 at 200 mg/kg/day for 8 weeks. Blood drawn at 0, 4, and 8 weeks. Group 4: Control mice (n=4) continue on CDAHFD for 2 weeks. Blood at baseline and at 2 weeks. Liver histology at 2 weeks. Group 5: Mice (n=4) on CDAHFD for 2 weeks plus D2 at 200 mg/kg/day administered via daily gavage. Blood at 0 and 2 weeks and histology at 2 weeks. Group 6: Mice (n=4) on CDAHFD for 2 weeks plus D4 at 200 mg/kg/day administered via daily gavage. Blood at 0 and 2 weeks and histology at 2 weeks.
Treatment Study Results. Groups 4, 5 and 6 mice received 8 weeks of CDAHDF diet before beginning treatment with deuterated compounds of the disclosure. During the treatment phase the mice continued to receive CDAHDF diet. Four mice were set in each group: control (C1) not receiving any drug; treatment (C2) receiving 200 mg/kg of cystamine D2 by once daily gavage; and treatment (C3) receiving 200 mg/kg cystamine D4 by once daily gavage.

Another series has as its system steatosis. Conditions: 400-1000 IU/day for 4-10 months, cited from earlier work.

Structures can show the parent of a compound that is named as a salt.

Consider nine molecules from patent US12391643B2, “Substituted amino-thiol and amino-disulfide compounds, and uses thereof” (The Regents of the University of California, priority 2019, dated 2025).

In the case of “2-aminoethane-1-d-1-thiol hydrochloride [D-cysteamine]”, the “Rate of hepatocyte elimination / stability, comparison in words” value in the series with Pooled human hepatocytes is reported as “slower rate than cysteamine bitartrate”.
As to `NCCS.O=C(O)C(O)C(O)C(=O)O` (stereo not drawn) [Cysteamine Bitartrate, reference compound], the “Hepatocyte elimination, % remaining” value is listed as 100% in the series on Pooled human hepatocytes (TIME 0 min), 15.4% in the series with Pooled human hepatocytes (TIME 15 min), 2.7% with Pooled human hepatocytes (TIME 30 min) and 1.2% with Pooled human hepatocytes (TIME 60 min).
For the molecule `[2H]C(CN)SSC([2H])CN` (stereo not drawn) [D2-Cystamine, 2,2′-disulfanediylbis(ethan-2-d-1-amine)dihydrochloride], the “Rate of hepatocyte elimination / stability, comparison in words” value with Pooled human hepatocytes is reported as “slower than non-deuterated cystamine”. For the same molecule, the “Rate of intracellular cystine depletion, comparison in words” value with cystinotic fibroblasts [1] (listed as D2-cystamine) is “slightly slower kinetics”; in the series on cystinotic fibroblasts [1] (listed as d2-Cystamine) it was “slightly slower kinetics”; in the series on cystinotic fibroblasts [1] (listed as d2-cystamine), “slower”. The “Cystine re-accumulation after washout, comparison in words” value in the series on cystinotic fibroblasts [2] (100 uM for 3 h, then drug-free media up to 17 h, vs cystamine) was “slightly faster”. Also, the “NEM-cysteine level after 3 h incubation and washout” value with cystinotic fibroblasts [3] was “rise and increase”; in the series on cystinotic fibroblasts [3] (listed as D2), “higher cysteine levels”. Also, in series [4], the “ALT levels at 8 weeks versus control group” value is given as “statistically significant difference”. Moreover, the “ALT versus untreated control group” value in series [5] (200 mg/kg once daily gavage, 2 weeks) is recorded as “significantly lower”. Further, the “Hepatic fibrosis, Sirius Red staining of liver sections” value in series [5] (200 mg/kg once daily gavage, 2 weeks, listed as D2) is “significant reduction in the amount of positive liver staining”; in series [5] (200 mg/kg once daily gavage, 2 weeks, listed as cystamine D2), “very significant reduction in hepatic fibrosis”. In addition, the “Number of CD11b positive cells in liver tissue versus control group” value in series [5] (200 mg/kg/day once daily gavage, 2 weeks) was “statistically significant reduction”. The “Fatty deposits / fat globules in liver, H&E staining” value in series [5] (2 weeks) is on record as “reduction in fatty globules”; in series [5] (2 weeks, listed as D2), “reduced fatty deposits compared to control”. For the same molecule, the “TIMP expression, qPCR, versus control” value in series [5] (liver, 2 weeks of treatment) is “significant reduction”.
On to `Cl.[2H]C([2H])(S)CN` [D2-cysteamine, 2-mercaptoethan-2,2-d2-1-aminium chloride], for which, in the series on Pooled human hepatocytes, the “Rate of hepatocyte elimination / stability, comparison in words” value was “slower rate than cysteamine bitartrate”.
With `[2H]C([2H])(N)CSSCC([2H])([2H])N` [D4n-cystamine, 2,2′-disulfanediylbis(ethan-1,1-d2-1-aminium) chloride], in the series on cystinotic fibroblasts [2], the “Cystine reaccumulation after washout, D4n vs D8” value was “very similar”.
Consider `[2H]C([2H])(N)C([2H])([2H])SSC([2H])([2H])C([2H])([2H])N` [D8-cystamine], for which the “Cystine reaccumulation after washout, D4n vs D8” value with cystinotic fibroblasts [2] is recorded as “very similar”.
In the case of `[2H]C(CN)SSC([2H])CN` (stereo not drawn) [drawing 24], the “Hepatocyte elimination, % remaining” value with Pooled human hepatocytes (TIME 0 min) is reported as 100%; with Pooled human hepatocytes (TIME 15 min), 22.6%; in the series with Pooled human hepatocytes (TIME 30 min) it was 24.3%; in the series on Pooled human hepatocytes (TIME 60 min), 0%.
The corresponding values for `[2H]C([2H])(CN)SSC([2H])([2H])CN` [drawing 25] are 100%, 131.4%, 35.9% and 14.5%.
vitamin E: the “Mean AST level after treatment” value in the series on steatosis (decreased from 104±61 IU/L) is reported as 33±11 IU/L. For the same molecule, the “Mean ALT level after treatment” value in the series with steatosis (decreased from 175±106 IU/L) was 40±26 IU/L.
